Entries after “also recorded” stand apart in the source; their conditions may differ.
Key:
[1] = biological target: PolQ ATPase enzyme (1-894) (Homo sapiens (Human), UniProt O75417); test: Polθ ATPase enzymatic assay (3 nM enzyme concentration), ADP-Glo; assay type: biochemical
Description: Following pre-incubation with inhibitors, DNA (Fork C) at 20 nM and ATP at 100 μM are added to start the reaction. Enzymatic reaction proceeds at rt for 60 min. ATP consumption is measured using the ADP-Glo assay from Promega. Luminescence is read on the Envision and IC50 are determined using the variable slope 4-parameters equation.
DNA (Fork C) is made by annealing 3 different oligos containing the following sequence of nucleotides:
Oligos are annealed by heating at 95° C. for 5 min in the following buffer (10 mM Tris-HCl PH7.5, 50 mM NaCl, 1 mM EDTA) and cooled to rt.
In Table 4, the Compounds were prepared according to Methods described previously using Intermediates described herein, commercially available reagents or intermediates described in the literature. In some cases, the use of protecting groups may be required to prepare Compounds described below.

HCT116 BRCA2−/− cells = test: Combination of Compound 113 and PARP inhibitors, cell growth by Incucyte; assay type: cell-based
Description: HCT116-BRCA2−/− (750 cells/well) cells were seeded in a 96-well plate (Costar 3595) and incubated overnight in a tissue culture incubator (5% CO2, 37° C.). The next day, Compound 113 and PARP inhibitors (olaparib or niraparib) were added using a TECAN D300 instrument. Media was replenished with fresh compounds every 3 or 4 days. Cellular growth was monitored using the Incucyte® Live-Cell Analysis System until DMSO-treated wells reached 90% confluency (10-12 days). Cellular confluency was determined using Incucyte® Cell-by-Cell Analysis Software Module and dose-response curves calculated using GraphPad Prism software.

HCT116 BRCA2−/− tumor = test: Polθ-PARP inhibitor combination therapy, tumor volume in mice; assay type: in vivo, SCID-Beige mice; conditions: Compound 113 30 mg/kg SDD suspension p.o. QD with olaparib 25 mg/kg p.o. QD; N=10, p=0.0008 (FIG. 2)
Description: (§1) A spray dried dispersion (SDD) formulation was developed using Compound 113. A 1:1 (w/w) mixture of Compound 113 and HPMCAS (grade H) were fully dissolved in a 4:1 (v/v) mixture of dichloromethane:methanol at a loading of ˜5% solid (w/w). The solution was spray-dried to an amorphous powder which was further dried overnight in a vacuum oven set to 40° C. to remove residual solvents. This SDD material was used for subsequent in vivo dosing in mouse models.
HCT116-BRCA2−/− (10^7 cells/mouse) cells were injected subcutaneously in SCID-Beige mice. Mice were randomized at a mean tumor volume of 150 mm^3. Compound 113 (30 mg/kg as an SDD suspension in 0.5% methocel+0.02% SLS) and PARP inhibitor olaparib (25 mg/kg) were dosed orally (p.o.) QD throughout the study. Control mice were dosed QD with vehicle solution. Tumor volumes measured (caliper) every 3-4 days. N=10, Welch's t test, *** p=0.0008.

[2] = system: MDAMB436 BRCA1 mutant breast tumor cells; test: Polθ-DNA-PK inhibitor combination, cell viability by Incucyte; assay type: cell-based; conditions: in combination with AZD-7648 (DNA-PK inhibitor), 9 days (FIG. 3)
Description: MDAMB436 BRCA1 mutant breast tumor cells were plated at 1500 cells/well in 96 well plates. Compounds were added on day 1 and cells were grown in at 37° C. for 9 days. Cell growth was assessed by the Incucyte assay. Cell viability was normalized to untreated cells.

[3] = system: DLD1 BRCA2 null tumor cells; test: as above; assay type: cell-based; conditions: in combination with AZD-7648 (DNA-PK inhibitor), 8 days (FIG. 4)
Description: DLD1 BRCA2 null tumor cells were plated at 1000 cells/well in 96 well plates. Compounds were added on day 1 and cells were grown in at 37° C. for 8 days. Cell growth was assessed by the Incucyte assay. Cell viability was normalized to untreated cells.

[4] = system: DOTC24510 BRCA 2 mutant breast tumor cells; test: Compound 113 and radiotherapy, cell viability by Incucyte; assay type: cell-based; conditions: 200 nM Compound 113 with radiotherapy at 0.5 or 1 Gy on days 2, 6, 9; read day 13 (FIG. 5)
Description: DOTC24510 BRCA 2 mutant breast tumor cells were plated in 96 well plates at a density of 1000 cells per well and cultured in tissue culture medium at 37° C. On day 1, cells were treated with either DMSO or 200 nM of Compound 113. Cells were irradiated with 0, 0.25, 0.5 or 1 Gy of radiation on days 2, 6, and 9. Cell viability was assessed by Incucyte assay on day 13.

DLD1-BRCA2−/− tumors = test: Compound 113 and carboplatin, tumor volume in mice; assay type: in vivo, SCID-Beige mice; conditions: Compound 113 45 mg/kg SDD suspension p.o. QD with carboplatin 25 mg/kg i.p. QW; day 35 N=10, p=0.0428 (FIG. 6A, 6B)
Description: as §1
DLD1-BRCA2−/− (10^7 cells/mouse) cells were injected subcutaneously in SCID-Beige mice. Mice were randomized at a mean tumor volume of 150 mm^3. Compound 113 (45 mg/kg as an SDD suspension in 0.5% methocel+0.02% SLS) was dosed orally (p.o.) QD throughout the study. Carboplatin (25 mg/kg) was dosed i.p. QW. Control mice were dosed QD and QW with corresponding vehicle solutions. Tumor volumes were measured (caliper) every 2-3 days.

PolQ ATPase enzyme (1-894), sequence (O75417 1-894): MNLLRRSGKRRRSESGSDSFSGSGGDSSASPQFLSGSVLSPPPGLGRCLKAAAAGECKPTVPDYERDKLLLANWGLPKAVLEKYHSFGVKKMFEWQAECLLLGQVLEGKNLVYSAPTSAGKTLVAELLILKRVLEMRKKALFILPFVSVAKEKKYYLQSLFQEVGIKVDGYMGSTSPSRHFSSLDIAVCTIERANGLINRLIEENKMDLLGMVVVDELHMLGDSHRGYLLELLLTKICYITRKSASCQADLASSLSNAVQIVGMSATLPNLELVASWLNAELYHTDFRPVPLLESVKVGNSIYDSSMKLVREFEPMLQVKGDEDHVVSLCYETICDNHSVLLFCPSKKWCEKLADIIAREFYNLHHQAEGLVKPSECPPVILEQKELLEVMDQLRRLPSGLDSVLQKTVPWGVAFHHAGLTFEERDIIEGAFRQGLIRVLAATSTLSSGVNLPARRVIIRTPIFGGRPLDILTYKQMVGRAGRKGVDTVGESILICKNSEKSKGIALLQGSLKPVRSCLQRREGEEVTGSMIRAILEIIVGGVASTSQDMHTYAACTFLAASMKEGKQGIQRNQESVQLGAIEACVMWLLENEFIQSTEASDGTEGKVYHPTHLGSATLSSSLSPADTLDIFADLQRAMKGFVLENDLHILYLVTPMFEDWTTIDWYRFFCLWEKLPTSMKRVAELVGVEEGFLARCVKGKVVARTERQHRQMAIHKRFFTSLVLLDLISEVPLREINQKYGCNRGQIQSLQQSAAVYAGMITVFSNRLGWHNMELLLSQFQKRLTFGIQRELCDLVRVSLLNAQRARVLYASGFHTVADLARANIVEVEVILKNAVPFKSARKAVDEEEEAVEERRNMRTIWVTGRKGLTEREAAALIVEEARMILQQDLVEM

Row | SMILES | IC50 [1] [nM] | percent viability of HCT116 BRCA2−/− cells, combination versus inhibitors alone (HCT116 BRCA2−/− cells; in combination with niraparib, 10-12 days (FIG. 1B)) | percent viability of HCT116 BRCA2−/− cells, combination versus inhibitors alone (HCT116 BRCA2−/− cells; in combination with olaparib, 10-12 days (FIG. 1A)) | HCT116 BRCA2−/− tumor volume, combination versus inhibitors alone (HCT116 BRCA2−/− tumor) | MDAMB436 BRCA1 cell viability, combination versus AZD-7648 alone [2] | DLD1 BRCA2 null tumor cell viability, combination versus AZD-7648 alone [3] | DOTC24510 BRCA 2 mutant breast tumor cell viability, combination versus Compound 113 alone [4] | DLD1-BRCA2−/− tumor volume, combination versus monotherapy treatments (DLD1-BRCA2−/− tumors)
1 | COc1ccc(F)cc1-c1cnccc1C(=O)Nc1nnc([C@@H]2C[C@H]2c2nc3ccccc3n2C)s1 (racemic) [Compound 4, 3-(5-fluoro-2-methoxyphenyl)-N-(5-((1R,2R)-2-(1-methyl-1H-benzo[d]imidazol-2-yl)cyclopropyl)-1,3,4-thiadiazol-2-yl)isonicotinamide] | 92 |  |  |  |  |  |  | 
2 | COc1cnc(C(F)F)cc1-c1cc(-c2ccn(C)n2)ncc1C(=O)Nc1nnc(C#CC2CC2)s1 [Compound 113, N-(5-(cyclopropylethynyl)-1,3,4-thiadiazol-2-yl)-2′-(difluoromethyl)-5′-methoxy-6-(1-methyl-1H-pyrazol-3-yl)-[4,4′-bipyridine]-3-carboxamide] |  | superior at reducing cancer cell viability | superior at reducing cancer cell viability | superior at reducing tumor volume | sensitizes MDAMB436 breast tumor cells to AZD-7648; also recorded: superior at reducing MDAMB436 BRCA1 cell viability | sensitizes DLD1 BRCA2 null tumor cells to AZD-7648; also recorded: superior at reducing DLD1 BRCA2 null tumor cell viability | sensitizes DOTC24510 breast tumor cells to irradiation; also recorded: superior at reducing DOTC24510 BRCA 2 mutant breast tumor cell viability | sensitizes DLD1 BRCA2 null tumors to carboplatin; also recorded: superior at reducing tumor volume in mice
